Experimental data published in patent US20090291857A1, “METHODS TO IDENTIFY INHIBITORS OF THE UNFOLDED PROTEIN RESPONSE” (THE BOARD OF TRUSTEES OF THE LELAND STANFORD JUNIOR …, priority 2006, published 2009).
Where two headings read alike, the source gives them in different places.

How the values were obtained:
[1] = system: IRE1α/XBP-1 pathway (XBP1-luciferase reporter); test: High throughput XBP-luciferase reporter screen, tunicamycin/thapsigargin induced (HTS and IRE IC50); type: cell-based, human; details: Homo sapiens; for inhibition at 20 µM: Conc 20 uM
Experimental: Specifically, HT1080 fibrosarcoma cells stably transfected with the unspliced XBP-1-luciferase reporter construct (3000/well) were plated onto a solid white 384 well microplate with a multidrop dispenser (40 μL per well). The plates were then placed into an automated incubator. After 24 hours of growth, a mixture of tunicamycin (1 μg/ml) and thapsigargin (100 nM) inducers were added, and candidate compounds were then added to the plates. After 24 hours, luciferase reagent (10 μl) was added to each well and the plates were read in a Molecular Devices Analyst GT (0.2 second read per well).
As described above in Example 2, HT1080 fibrosarcoma cells stably expressing the XBP-luciferase reporter were plated in a 384 well microplate (4000 cells/well). After 24 hours, cells were treated with a mixture of tunicamycin (4 μg/ml) and thapsigargin (0.4 μM), followed by the addition of one compound per well (10 μM). We screened a total of 66,000 diverse molecules obtained from Specs, Chembridge and ChemRX. Twenty-four hours post-induction, BriteGlo luciferase substrate (10 μl) was added to each well and the signal intensity determined in a plate reader (0.2 s read per well). […] We retested 431 compounds from the initial screen, and selected 58 compounds for additional analysis, including calculation of IC50 values and inhibition of a CMV-luciferase reporter.
A. XBP-luciferase reporter construct. Firefly luciferase was inserted downstream of the IRE1α splice site in human XBP-1 to enable the conditional translation of luciferase under ER stress in an IRE1α-dependent manner. B. Selective inhibition of the XBP-luciferase reporter by irestatin 9389. HT1080 human fibrosarcoma cells stably expressing the XBP-luciferase reporter or CMV-luciferase were cultured in the presence of Tm (4 μg/ml) and Tg (0.4 μM) and irestatin 9389 at the indicated concentrations. After 24 hours, luciferase activity was analyzed in an automated plate reader. For each cell line, values are expressed as the percent inhibition of the median for Tm/Tg-treated wells, corrected for background. C. Structure of irestatin 9389. D. XBP-luciferase reporter assay. HT1080 cells stably expressing the XBP-luciferase reporter were exposed to Tm (4 μg/ml) for 24 hours or hypoxia (0.1% oxygen) for 24 or 48 hours, in the presence of DMSO or irestatin 9389 (1 μM) as indicated. Values are expressed as the fold increases over uninduced levels. E. 5X-UPRE reporter assay. HT1080 cells were co-transfected with 5X-UPRE luciferase and SV40-beta-gal reporter plasmids, followed by exposure to Tm or hypoxia as in D. For each condition, luciferase activity is normalized to beta-galactosidase expression levels as an internal control for transfection efficiency. F. Western immunoblot analysis of XBP-1s. HT1080 cells were left untreated (lane 2) or exposed to Tm (4 μg/ml) for 20 hours in the presence of DMSO vehicle (lane 1) or the indicated irestatins (2 μM; lanes 3-6). Cell lysates were resolved by SDS-PAGE and immunoblotting using antisera specific for XBP-1s (top panel) or actin and GAPDH (bottom panel) as loading controls. […] HT1080 cells were treated with DMSO or exposed to irestatin 9389 (2 μM; lane 3) in normoxia (N) or under hypoxia for 24 hours (H 24; lanes 2,3). Cells were harvested, lysed, and analyzed by immunoblotting with antisera specific for HIF-1α (top), XBP-1s (middle) or actin (bottom). H. Northern blot analysis of XBP-1s transcription targets. Cells were exposed to Tm (4 μg/ml) or hypoxia for 24 hours (H 24) in the absence or presence of irestatin 9389 (2 μM). Total RNA was analyzed by Northern blotting using radiolabeled probes specific for P58^IPK or DER-1. Total rRNA is shown as loading control.
As described above, a HT1080 fibrosarcoma cell line stably expressing a fusion of unprocessed XBP-1 inserted upstream of firefly luciferase has been developed to identify small molecule inhibitors of the IRE1α/XBP-1 signaling module. […]

XBP-1 splicing = test: Bioluminescence imaging of XBP-1 splicing in HT1080 XBP-1s-luciferase tumors in nude mice; type: in vivo; details: IP, 50 mg/kg
Experimental: Several nude mice were implanted with HT1080 cells stably expressing a XBP-1s-luciferase construct and XBP-1 activation was examined using bioluminescence imaging. Imaging was performed using the In Vivo Imaging System (IVIS, Xenogen Corporation, Alameda, Calif.) in the Stanford Center for Innovation in In Vivo Imaging (SCI3). This device consists of a cooled CCD camera mounted on a light-tight specimen chamber. In these experiments, two different potential irestatins (3281 & 5500) were injected IP into nude mice implanted with HT1080 stably expressing XBP1s-luciferase (described in FIG. 2A).
As shown in FIGS. 9A-D, XBP-1 splicing activity was undetectable 8 hrs after irestatin 3281 injection and became detectable within 16 hrs later.

[2] = 24 h, inhibition of XBP1-luciferase reporter, read-out: Activity Class
[3] = HTS, Conc 10 uM, read-out: % Inh

| Structure (SMILES) | inhibition at 10 µM [1, 2] | inhibition at 10 µM [1, 3] | further results |
| --- | --- | --- | --- |
| COCc1cc(C)nc(SCC(=O)Nc2nc(-c3ccc(Br)cc3)cs2)c1C#N [Compound 0040] | < 10% | -4.6% | – |
| N#Cc1c(C(F)(F)F)cc(-c2ccncc2)nc1SCC(=O)Nc1nccs1 [Compound 0069] | < 10% | -5.4% | – |
| CC(=O)N1CCc2nc3sc(C(=O)Nc4cccc(C#N)c4)c(N)c3c(C(F)(F)F)c2C1 [Compound 1491] | 10 to 30% | – | – |
| Nc1c(C(=O)Nc2ccccn2)sc2nc(-c3cccs3)cc(C(F)(F)F)c12 [Compound 1567] | < 10% | -41.2% | – |
| COc1ccc(CNC(=O)c2sc3nc4c(c(C(F)(F)F)c3c2N)CCC4)cc1 [Compound 1740] | 10 to 30% | – | – |
| COc1ccc(CNC(=O)c2sc3nc4c(c(C(F)(F)F)c3c2N)CCC4)cc1OC [Compound 2399] | 10 to 30% | 13.3% | – |
| Cc1cccc(NC(=O)c2sc3nc(C)cc(C(F)(F)F)c3c2N)n1 [Compound 2750] | 10 to 30% | 11.7% | – |
| CC(=O)C1=C(C)NC(SCC(=O)Nc2nc3ccccc3s2)=C(C#N)C1c1cccnc1 (stereo not shown) [Compound 2853] | 10 to 30% | 26.5% | – |
| Cc1cc(C(F)(F)F)c2c(N)c(C(=O)Nc3cccc(C(F)(F)F)c3)sc2n1 [Compound 3290] | < 10% | -30.3% | – |
| N#Cc1cc2c(nc1SCC(=O)Nc1nccs1)CCC2 [Compound 3371] | – | – | inhibition at 20 µM ([1]; IRE IC50 assay): 72.6%; IC50 ([1]; IRE IC50 assay, each value a separate calculation, estimate, not accurate below 10 nM, read-out: IC50): 13.9 µM |
| N#Cc1cc2c(nc1SCC(=O)Nc1nccs1)CCCCC2 [Compound 3398] | < 10% | -56.2% | – |
| Cc1csc(NC(=O)c2sc3nc4c(c(C(F)(F)F)c3c2N)CCCC4)n1 [Compound 4335] | 30 to 75% | – | inhibition at 12 µM ([1]; IRE IC50 assay, Conc 12 uM): 70.4%; inhibition at 20 µM ([1]; IRE IC50 assay): 67.4% |
| N#Cc1c(C(F)(F)F)cc(-c2cccs2)nc1SCC(=O)Nc1ccccn1 [Compound 4645] | < 10% | -8.3% | – |
| COc1ccccc1NC(=O)CSc1nc2c(c(C(F)(F)F)c1C#N)CCC2 [Compound 4950] | < 10% | -6.2% | – |
| Cc1csc(NC(=O)c2sc3nc4c(c(C(F)(F)F)c3c2N)CCC4)n1 [Compound 5500] | 75 to 100% | – | effect on XBP-1 splicing at the time points assayed (XBP-1 splicing): did not have any affect on XBP-1 splicing; toxicity (XBP-1 splicing): no apparent toxicity; inhibition at 20 µM ([1]; IRE IC50 assay): 100% |
| N#Cc1sc2nc(-c3cccs3)cc(C(F)(F)F)c2c1N [Compound 6068] | < 10% | – | inhibition at 12.3 µM ([1]; HTS, Conc 12.3 uM): 5.8% |
| N#Cc1c(C(F)(F)F)cc(-c2ccccc2)nc1SCC(=O)Nc1nccs1 [Compound 6392] | < 10% | 2.7% | – |
| N#Cc1c(C(F)(F)F)cc(-c2cccs2)nc1SCC(=O)Nc1nccs1 [Compound 6451] | < 10% | -55.6% | – |
| Cc1cc(C(F)(F)F)c(C#N)c(SCC(=O)Nc2nccs2)n1 [Compound 8233] | < 10% | -59.6% | – |
| N#Cc1cccc(NC(=O)c2sc3nc4c(c(C(F)(F)F)c3c2N)CCC4)c1 [Compound 8878] | 30 to 75% | – | – |
| CCN(CC)C(=O)CSc1nc2c(c(C(F)(F)F)c1C#N)CCC2 [Compound 8920] | 10 to 30% | 25.7% | – |
| N#Cc1c(C(F)(F)F)cc(-c2cccs2)nc1SCC(=O)Nc1ccc(C(N)=O)cc1 [Compound 9165] | < 10% | -6.5% | – |
| COc1ccc(NC(=O)CSc2nc3c(c(C(F)(F)F)c2C#N)CCC3)c(OC)c1 [Compound 9388] | < 10% | -40.8% | – |
| COCc1cc(C)nc(SCC(=O)Nc2nc(-c3ccc(C)cc3)cs2)c1C#N [Compound 9668] | 10 to 30% | 19% | – |
| COCc1cc(C)nc(SCC(=O)Nc2nc(-c3ccccc3)c(C)s2)c1C#N [Compound 9766] | 10 to 30% | 26.7% | – |
| COCc1cc(C)nc(SCC(=O)Nc2nc(-c3ccccc3)cs2)c1C#N [Compound 9787] | < 10% | -122% | – |
